Source: article PMC7101356, “Cross-site and cross-platform variability of automated patch clamp assessments of drug effects on human cardiac currents in recombinant cells” (Scientific Reports, 2020)

Tests used:
hCav1.2 = hCav1.2 (Homo sapiens, UniProt Q13936); assay: Automated patch clamp, hCav1.2 current block
Protocol: Peak current was measured during the step to 0 mV. Leak current was measured after applying a saturating concentration of a blocker such as cadmium (200 µM) at the end of each experiment to completely block hCav1.2 current.
Concentration-response relationships for each test article were independently investigated, i.e., each cell received only one test article, typically evaluating multiple concentrations in a cumulative fashion (lowest to highest concentrations). However, some platforms tested only one concentration per well. Each concentration response was based on a minimum of four concentrations, with a minimum of three wells used for each concentration. In cases of high variability, more cells per concentration were recorded. Prior to drug addition, cells received an addition of vehicle to measure non-test article-related effects such as addition artifacts. At the end of the experiment, a supramaximal concentration of a known inhibitory reference compound was applied to assess leak current and appropriate responsiveness of the test system. While it was recommended that a separate group of cells (n ≥ 3) be recorded for each experimental day to determine the baseline response to vehicle and to address day-to-day variability, this was not verified.
These criteria were applied to all APC platforms.
(§1) The steady state current at each concentration was used to determine the concentration-response relationships. Mean concentration-response data were fitted to a standard sigmoidal four-parameter logistic equation (GraphPad Prism 7; GraphPad Inc., La Jolla, CA) of the form: Y=Bottom+(Top−Bottom)/(1+10^∧(LogIC50−X)∗HillSlope) where Y is the current inhibition (in % of pre-drug control), X is the logarithm of drug concentration, and IC50 is the drug concentration producing half-maximal current inhibition. Curve fitting was performed using the following constraints: Top = 100%, Bottom = 0%, Hill Slope <2. No curve fitting was performed in cases with an obvious lack of a concentration-dependent current inhibition and/or small effect size (approximately ≤20%).

hERG [1] = molecular target: T1, hERG (Homo sapiens, UniProt Q12809); assay: Automated patch clamp, hERG current block (consensus step-ramp protocol); conditions: for hERG K+ current inhibition, Mean, at maximal concentration: max conc [mol/L]: bep 3.00E-07, cpz 3.00E-06, cis 3.00E-07, dil 1.00E-04, dof 1.00E-07, mex 1.00E-04, ond 1.00E-05, qui 1.00E-05, ran 1.00E-04, sot 3.00E-04, ter 3.00E-07, ver 1.00E-06; for hERG K+ current inhibition, Mean, at minimal concentration: min conc [mol/L]: bep 1.00E-08, cpz 1.00E-07, cis 1.00E-09, dil 3.00E-06, dof 1.00E-09, mex 1.00E-06, ond 3.00E-07, qui 1.00E-07, ran 3.00E-06, sot 1.00E-05, ter 1.00E-08, ver 3.00E-08
T1 sequence (Q12809 whole entry): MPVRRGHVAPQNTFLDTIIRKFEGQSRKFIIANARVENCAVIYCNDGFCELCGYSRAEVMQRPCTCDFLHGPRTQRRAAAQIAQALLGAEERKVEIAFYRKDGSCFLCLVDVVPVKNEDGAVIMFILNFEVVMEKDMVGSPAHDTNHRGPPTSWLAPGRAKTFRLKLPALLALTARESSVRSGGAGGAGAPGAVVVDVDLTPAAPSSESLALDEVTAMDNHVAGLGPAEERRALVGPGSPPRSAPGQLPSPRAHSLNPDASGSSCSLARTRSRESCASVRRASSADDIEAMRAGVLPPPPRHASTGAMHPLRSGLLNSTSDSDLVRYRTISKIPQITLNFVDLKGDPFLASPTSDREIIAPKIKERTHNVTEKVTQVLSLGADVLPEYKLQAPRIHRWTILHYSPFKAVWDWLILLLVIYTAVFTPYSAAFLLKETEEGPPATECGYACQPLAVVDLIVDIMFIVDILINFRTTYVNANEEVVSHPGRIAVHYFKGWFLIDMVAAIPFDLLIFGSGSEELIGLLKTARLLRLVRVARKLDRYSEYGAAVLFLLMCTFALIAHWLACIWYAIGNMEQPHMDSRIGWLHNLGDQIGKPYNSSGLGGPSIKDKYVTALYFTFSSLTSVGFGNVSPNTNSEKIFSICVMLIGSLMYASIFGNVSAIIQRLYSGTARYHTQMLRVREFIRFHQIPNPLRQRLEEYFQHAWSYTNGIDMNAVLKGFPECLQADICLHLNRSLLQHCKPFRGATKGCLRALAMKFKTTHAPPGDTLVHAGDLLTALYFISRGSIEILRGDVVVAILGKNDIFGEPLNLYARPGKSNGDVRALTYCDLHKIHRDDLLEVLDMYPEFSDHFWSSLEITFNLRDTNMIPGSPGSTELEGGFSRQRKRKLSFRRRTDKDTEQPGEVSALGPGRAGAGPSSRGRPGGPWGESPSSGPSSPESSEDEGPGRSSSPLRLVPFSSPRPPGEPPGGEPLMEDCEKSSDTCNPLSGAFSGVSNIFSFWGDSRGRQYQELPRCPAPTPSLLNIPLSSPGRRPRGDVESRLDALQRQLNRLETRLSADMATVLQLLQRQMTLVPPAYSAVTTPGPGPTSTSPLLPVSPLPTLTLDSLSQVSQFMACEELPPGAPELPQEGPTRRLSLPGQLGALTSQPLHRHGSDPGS

hERG [2] = molecular target: T1, hERG; assay: Automated patch clamp, hERG current block, Milnes protocol (site s06); format: cell-based; parameters: expressed in transfected cells; host or cells: HEK293 or CHO, depending on site (site s06, Milnes protocol: HEK293); conditions: s06_p4, HEK293, 22–24 °C
Description: Thus, a single test site (s06) elicited hERG current with a 10-s depolarizing voltage step from −80 mV to 0 mV every 25 s (Milnes protocol, see Milnes et al.[14]).
as §1
This protocol consists of a set of two 25-s-long pulse protocols, with one protocol (“Pulse”) containing a prolonged 10-s-long depolarizing test pulse (0 mV) followed by a 14-s-long return pulse to −80 mV, and a second protocol “No-Pulse” consisting of the same pulse structure without the depolarizing test pulse[18].

[3] = s03_p2, HEK293, room temperature
[4] = s16_p3, HEK293, room temperature

hCav1.2, sequence (Q13936 whole entry): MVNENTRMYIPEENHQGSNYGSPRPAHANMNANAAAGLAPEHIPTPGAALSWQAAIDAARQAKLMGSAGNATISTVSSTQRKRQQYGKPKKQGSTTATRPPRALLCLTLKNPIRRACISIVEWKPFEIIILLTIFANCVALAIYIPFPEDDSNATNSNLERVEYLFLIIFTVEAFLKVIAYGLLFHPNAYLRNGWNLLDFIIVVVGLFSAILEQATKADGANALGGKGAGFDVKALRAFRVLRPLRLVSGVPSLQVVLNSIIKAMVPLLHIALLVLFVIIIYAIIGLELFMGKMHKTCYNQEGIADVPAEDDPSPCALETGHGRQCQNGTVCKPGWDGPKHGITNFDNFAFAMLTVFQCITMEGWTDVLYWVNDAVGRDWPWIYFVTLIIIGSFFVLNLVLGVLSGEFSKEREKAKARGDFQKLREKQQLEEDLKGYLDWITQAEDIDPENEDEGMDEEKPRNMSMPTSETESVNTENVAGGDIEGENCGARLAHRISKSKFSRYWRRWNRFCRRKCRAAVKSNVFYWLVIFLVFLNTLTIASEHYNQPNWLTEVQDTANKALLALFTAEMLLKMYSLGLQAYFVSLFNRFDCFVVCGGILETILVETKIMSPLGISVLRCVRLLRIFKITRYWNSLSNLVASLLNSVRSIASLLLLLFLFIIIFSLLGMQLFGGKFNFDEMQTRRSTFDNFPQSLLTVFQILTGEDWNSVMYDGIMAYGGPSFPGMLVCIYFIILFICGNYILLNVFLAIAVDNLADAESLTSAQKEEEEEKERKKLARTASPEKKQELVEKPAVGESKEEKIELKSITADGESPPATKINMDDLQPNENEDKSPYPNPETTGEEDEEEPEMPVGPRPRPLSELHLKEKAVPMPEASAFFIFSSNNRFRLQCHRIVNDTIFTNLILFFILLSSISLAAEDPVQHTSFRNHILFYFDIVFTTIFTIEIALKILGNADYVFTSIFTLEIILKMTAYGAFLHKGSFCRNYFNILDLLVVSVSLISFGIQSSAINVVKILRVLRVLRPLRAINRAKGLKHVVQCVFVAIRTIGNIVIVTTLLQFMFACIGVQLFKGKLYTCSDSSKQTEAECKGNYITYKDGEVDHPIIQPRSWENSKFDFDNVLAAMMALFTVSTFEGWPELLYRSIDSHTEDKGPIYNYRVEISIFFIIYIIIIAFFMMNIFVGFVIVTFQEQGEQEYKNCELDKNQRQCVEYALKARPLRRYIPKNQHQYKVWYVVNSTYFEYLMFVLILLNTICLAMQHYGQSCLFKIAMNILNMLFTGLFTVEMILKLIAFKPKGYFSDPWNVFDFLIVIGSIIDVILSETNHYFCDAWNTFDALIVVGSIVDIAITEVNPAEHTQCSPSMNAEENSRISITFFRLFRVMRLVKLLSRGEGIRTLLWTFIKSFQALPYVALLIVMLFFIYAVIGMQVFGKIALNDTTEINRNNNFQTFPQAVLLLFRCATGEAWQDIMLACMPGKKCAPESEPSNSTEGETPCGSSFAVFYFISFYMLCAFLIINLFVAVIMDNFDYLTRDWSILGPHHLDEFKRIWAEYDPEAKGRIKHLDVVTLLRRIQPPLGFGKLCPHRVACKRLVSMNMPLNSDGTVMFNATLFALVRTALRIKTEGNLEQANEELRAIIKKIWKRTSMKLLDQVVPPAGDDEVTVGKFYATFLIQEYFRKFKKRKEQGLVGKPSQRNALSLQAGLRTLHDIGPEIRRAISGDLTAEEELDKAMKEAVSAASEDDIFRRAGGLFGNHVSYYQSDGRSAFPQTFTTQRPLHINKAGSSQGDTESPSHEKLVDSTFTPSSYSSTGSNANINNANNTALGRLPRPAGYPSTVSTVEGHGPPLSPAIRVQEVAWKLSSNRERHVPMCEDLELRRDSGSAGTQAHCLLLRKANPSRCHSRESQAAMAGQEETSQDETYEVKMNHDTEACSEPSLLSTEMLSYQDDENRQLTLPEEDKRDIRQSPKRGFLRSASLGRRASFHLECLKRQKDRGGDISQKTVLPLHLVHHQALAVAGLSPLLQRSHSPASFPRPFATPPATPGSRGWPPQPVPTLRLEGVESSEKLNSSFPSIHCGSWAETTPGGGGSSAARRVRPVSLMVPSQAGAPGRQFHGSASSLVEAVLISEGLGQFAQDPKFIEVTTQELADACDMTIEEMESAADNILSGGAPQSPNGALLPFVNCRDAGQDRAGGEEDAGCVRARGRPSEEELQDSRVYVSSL
hCav1.2, sequence (Q08289 whole entry partner): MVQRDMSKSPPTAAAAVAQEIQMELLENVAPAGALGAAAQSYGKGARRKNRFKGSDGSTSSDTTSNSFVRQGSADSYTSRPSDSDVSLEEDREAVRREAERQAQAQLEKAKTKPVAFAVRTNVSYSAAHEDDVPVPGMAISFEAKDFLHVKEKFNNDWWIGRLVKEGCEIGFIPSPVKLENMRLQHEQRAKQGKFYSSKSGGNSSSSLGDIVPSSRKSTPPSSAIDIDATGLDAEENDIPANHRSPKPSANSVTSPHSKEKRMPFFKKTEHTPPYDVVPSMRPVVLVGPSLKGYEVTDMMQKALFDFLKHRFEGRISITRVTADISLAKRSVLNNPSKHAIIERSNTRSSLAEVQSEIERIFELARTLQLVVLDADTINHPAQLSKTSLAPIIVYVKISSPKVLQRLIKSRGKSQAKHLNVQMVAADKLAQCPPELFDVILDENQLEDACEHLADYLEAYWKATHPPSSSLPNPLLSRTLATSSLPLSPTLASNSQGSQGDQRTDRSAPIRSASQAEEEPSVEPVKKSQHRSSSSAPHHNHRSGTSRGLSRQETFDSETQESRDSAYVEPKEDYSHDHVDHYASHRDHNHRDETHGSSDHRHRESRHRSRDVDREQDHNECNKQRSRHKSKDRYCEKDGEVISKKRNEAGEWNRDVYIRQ
hCav1.2, sequence (P54289 25-956 partner limits assumed): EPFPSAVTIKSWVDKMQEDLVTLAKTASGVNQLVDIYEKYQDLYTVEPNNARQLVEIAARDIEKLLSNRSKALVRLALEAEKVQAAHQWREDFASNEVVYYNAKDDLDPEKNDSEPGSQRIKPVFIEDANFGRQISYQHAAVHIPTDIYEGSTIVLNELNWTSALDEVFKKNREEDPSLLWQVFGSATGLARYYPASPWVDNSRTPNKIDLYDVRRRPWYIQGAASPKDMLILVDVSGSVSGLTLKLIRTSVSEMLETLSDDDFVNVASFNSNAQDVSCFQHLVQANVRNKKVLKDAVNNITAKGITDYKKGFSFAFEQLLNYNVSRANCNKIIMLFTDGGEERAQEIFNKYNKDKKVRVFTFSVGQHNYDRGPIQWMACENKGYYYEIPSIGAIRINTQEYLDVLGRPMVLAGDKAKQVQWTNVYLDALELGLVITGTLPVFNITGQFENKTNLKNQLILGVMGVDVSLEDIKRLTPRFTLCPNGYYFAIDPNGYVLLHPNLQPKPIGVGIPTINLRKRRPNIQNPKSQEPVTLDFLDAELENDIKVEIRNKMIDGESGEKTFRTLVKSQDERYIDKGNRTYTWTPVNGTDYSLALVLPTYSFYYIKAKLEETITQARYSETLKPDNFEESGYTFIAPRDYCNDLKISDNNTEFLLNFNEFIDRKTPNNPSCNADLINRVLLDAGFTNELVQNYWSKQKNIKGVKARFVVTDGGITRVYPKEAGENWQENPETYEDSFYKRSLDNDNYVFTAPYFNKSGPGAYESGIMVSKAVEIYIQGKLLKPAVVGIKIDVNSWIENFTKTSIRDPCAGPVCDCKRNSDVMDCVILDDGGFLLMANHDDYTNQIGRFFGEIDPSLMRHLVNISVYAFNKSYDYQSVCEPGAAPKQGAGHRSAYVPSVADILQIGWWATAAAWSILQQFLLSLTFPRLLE
hCav1.2, sequence (P54289 957-1103 partner limits assumed): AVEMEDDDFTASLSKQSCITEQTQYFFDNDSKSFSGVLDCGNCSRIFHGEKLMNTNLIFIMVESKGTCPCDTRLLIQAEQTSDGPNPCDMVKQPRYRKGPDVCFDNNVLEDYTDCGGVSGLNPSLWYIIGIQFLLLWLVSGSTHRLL

Compound: Cc1nccn1CC1CCc2c(c3ccccc3n2C)C1=O (centres unmarked) [ond, ondansetron]
- log IC50, half-maximal inhibitory concentration (hCav1.2; site s01_p1): no inh.
- Peak hCav1.2 Ca2+ current inhibition, Mean (hCav1.2; site s01_p1, 3.00E-07 mol/L): 3.2%
- log IC50, half-maximal inhibitory concentration (hCav1.2; site s02_p2, corrected for rundown): no inh.
- Peak hCav1.2 Ca2+ current inhibition, Mean (hCav1.2; site s02_p2, corrected for rundown, 3.00E-07 mol/L): -6.3%
- nH, Hill slope (hCav1.2; site s04_p3): 0.60
- Peak hCav1.2 Ca2+ current inhibition, Mean (hCav1.2; site s04_p3, 1.00E-05 mol/L): 16.1%
- Peak hCav1.2 Ca2+ current inhibition, Mean (hCav1.2; site s04_p3, 3.00E-07 mol/L): 2.6%
- log IC50, half-maximal inhibitory concentration (hCav1.2; site s06_p4): no inh.
- Peak hCav1.2 Ca2+ current inhibition, Mean (hCav1.2; site s06_p4, 3.00E-07 mol/L): 18.9%
- log IC50, half-maximal inhibitory concentration (hCav1.2; site s11_p1): no inh.
- Peak hCav1.2 Ca2+ current inhibition, Mean (hCav1.2; site s11_p1, 3.00E-07 mol/L): 19.7%
- nH, Hill slope (hCav1.2; site s14_p1): 2.00
- Peak hCav1.2 Ca2+ current inhibition, Mean (hCav1.2; site s14_p1, 3.00E-07 mol/L): 4.0%
- nH, Hill slope (hCav1.2; site s16_p3): 0.42
- Peak hCav1.2 Ca2+ current inhibition, Mean (hCav1.2; site s16_p3, 3.00E-07 mol/L): 20.6%
- log IC50, half-maximal inhibitory concentration (hCav1.2; site s18_p1): no inh.
- Peak hCav1.2 Ca2+ current inhibition, Mean (hCav1.2; site s18_p1, 3.00E-07 mol/L): 16.9%
- inhibition at 1e-05 mol/L (hERG [1]; human, recombinant cells expressing hERG, hERG K+ current inhibition, Mean, site_platform s07_p5, 1.00E-05 mol/L): 101%
- inhibition at 3e-07 mol/L (hERG [1]; human, recombinant cells expressing hERG, hERG K+ current inhibition, Mean, site_platform s07_p5, 3.00E-07 mol/L): 17%
- inhibition at 4 min, 1e-05 mol/L (hERG [1]; human, recombinant cells expressing hERG, hERG K+ current inhibition, Mean, site_platform s10_p3, 1.00E-05 mol/L): 71.8%
- inhibition at 4 min, 3e-07 mol/L (hERG [1]; human, recombinant cells expressing hERG, hERG K+ current inhibition, Mean, site_platform s10_p3, 3.00E-07 mol/L): 9.7%
- inhibition at 7 min, 1e-05 mol/L (hERG [1]; human, recombinant cells expressing hERG, hERG K+ current inhibition, Mean, site_platform s11_p1, 1.00E-05 mol/L): 89.6%
- inhibition at 7 min, 3e-07 mol/L (hERG [1]; human, recombinant cells expressing hERG, hERG K+ current inhibition, Mean, site_platform s11_p1, 3.00E-07 mol/L): 11.6%
- inhibition at 1e-05 mol/L (hERG [1]; human, recombinant cells expressing hERG, hERG K+ current inhibition, Mean, site_platform s12_p2, 1.00E-05 mol/L): 91.6%
- inhibition at 3e-07 mol/L (hERG [1]; human, recombinant cells expressing hERG, hERG K+ current inhibition, Mean, site_platform s12_p2, 3.00E-07 mol/L): 19.3%
- inhibition at 1e-05 mol/L (hERG [1]; human, recombinant cells expressing hERG, hERG K+ current inhibition, Mean, site_platform s13_p2, 1.00E-05 mol/L): 90%
- inhibition at 3e-07 mol/L (hERG [1]; human, recombinant cells expressing hERG, hERG K+ current inhibition, Mean, site_platform s13_p2, 3.00E-07 mol/L): 11.4%
- inhibition at 7 min, 1e-05 mol/L (hERG [1]; human, recombinant cells expressing hERG, hERG K+ current inhibition, Mean, site_platform s14_p1, 1.00E-05 mol/L): 89.4%
- inhibition at 7 min, 3e-07 mol/L (hERG [1]; human, recombinant cells expressing hERG, hERG K+ current inhibition, Mean, site_platform s14_p1, 3.00E-07 mol/L): 58.7%
- hERG K+ current nH, Hill slope (hERG [1]; s01_p1, CHO, 23 °C): 1.06
- hERG K+ current inhibition, Mean, at maximal concentration (hERG [1]; s01_p1, CHO, 23 °C): 83.1%
- hERG K+ current inhibition, Mean, at minimal concentration (hERG [1]; s01_p1, CHO, 23 °C): 8.8%
- hERG K+ current nH, Hill slope (hERG [1]; s02_p2, HEK293, 22–26 °C): 1.07
- hERG K+ current inhibition, Mean, at maximal concentration (hERG [1]; s02_p2, HEK293, 22–26 °C): 79.8%
- hERG K+ current inhibition, Mean, at minimal concentration (hERG [1]; s02_p2, HEK293, 22–26 °C): 6.1%
- hERG K+ current nH, Hill slope (hERG [1]; [3]): 1.08
- hERG K+ current inhibition, Mean, at maximal concentration (hERG [1]; [3]): 99.9%
- hERG K+ current inhibition, Mean, at minimal concentration (hERG [1]; [3]): 37.2%
- hERG K+ current nH, Hill slope (hERG [1]; s04_p3, CHO, room temperature): 0.97
- hERG K+ current inhibition, Mean, at maximal concentration (hERG [1]; s04_p3, CHO, room temperature): 90.6%
- hERG K+ current inhibition, Mean, at minimal concentration (hERG [1]; s04_p3, CHO, room temperature): 22.1%
- hERG K+ current nH, Hill slope (hERG [1]; s05_p4, HEK293, 22–24 °C): 1.32
- hERG K+ current inhibition, Mean, at maximal concentration (hERG [1]; s05_p4, HEK293, 22–24 °C): 93.2%
- hERG K+ current inhibition, Mean, at minimal concentration (hERG [1]; s05_p4, HEK293, 22–24 °C): 9.6%
- hERG K+ current nH, Hill slope (hERG [1]; s15_p1, HEK293, 22–23 °C): 0.88
- hERG K+ current inhibition, Mean, at maximal concentration (hERG [1]; s15_p1, HEK293, 22–23 °C): 87.4%
- hERG K+ current inhibition, Mean, at minimal concentration (hERG [1]; s15_p1, HEK293, 22–23 °C): 25.2%
- hERG K+ current nH, Hill slope (hERG [1]; [4]): 1.01
- hERG K+ current inhibition, Mean, at maximal concentration (hERG [1]; [4]): 84.1%
- hERG K+ current inhibition, Mean, at minimal concentration (hERG [1]; [4]): 11.9%
- hERG K+ current nH, Hill slope (hERG [1]; s18_p1, CHO, 35 °C): 1.05
- hERG K+ current inhibition, Mean, at maximal concentration (hERG [1]; s18_p1, CHO, 35 °C): 85.6%
- hERG K+ current inhibition, Mean, at minimal concentration (hERG [1]; s18_p1, CHO, 35 °C): 12.7%
- hERG K+ current nH, Hill slope (hERG [1]; s19_p3, CHO, room temperature): 1.01
- hERG K+ current inhibition, Mean, at maximal concentration (hERG [1]; s19_p3, CHO, room temperature): 92.9%
- hERG K+ current inhibition, Mean, at minimal concentration (hERG [1]; s19_p3, CHO, room temperature): 25.8%
- nH (Hill slope), hERG K+ current inhibition (hERG [1]; site_platform s07_p5): 1.26
- nH (Hill slope), hERG K+ current inhibition (hERG [1]; site_platform s10_p3): 0.98
- nH (Hill slope), hERG K+ current inhibition (hERG [1]; site_platform s11_p1): 1.10
- nH (Hill slope), hERG K+ current inhibition (hERG [1]; site_platform s12_p2): 1.03
- nH (Hill slope), hERG K+ current inhibition (hERG [1]; site_platform s13_p2): 1.19
- nH (Hill slope), hERG K+ current inhibition (hERG [1]; site_platform s14_p1): 0.47
- hERG K+ current nH, Hill slope (hERG [2]): 1.05
- hERG K+ current inhibition, Mean, at maximal concentration (hERG [2]; max conc [mol/L]: bep 3.00E-07, cpz 3.00E-06, cis 3.00E-07, dil 1.00E-04, dof 1.00E-07, mex 1.00E-04, ond 1.00E-05, qui 1.00E-05, ran 1.00E-04, sot 3.00E-04, ter 3.00E-07, ver 1.00E-06): 95.5%
- hERG K+ current inhibition, Mean, at minimal concentration (hERG [2]; min conc [mol/L]: bep 1.00E-08, cpz 1.00E-07, cis 1.00E-09, dil 3.00E-06, dof 1.00E-09, mex 1.00E-06, ond 3.00E-07, qui 1.00E-07, ran 3.00E-06, sot 1.00E-05, ter 1.00E-08, ver 3.00E-08): 25.3%
